From patent publication US20180214440A1, “ORAL COMPOSITION” (HELPERBY THERAPEUTICS LIMITED, priority 2015, published 2018)

System: log phase S. aureus
Assay: Time-kill studies for 240 minutes, Example 3
Format: cell-based
Conditions: alone at 0.01% w/v, FIG. 6
Experimental: FIGS. 4, 5 and 6 contain the results of the time-kill studies then carried out against log phase S. aureus for 240 minutes (4 hours).
These formulations included chlorhexidine digluconate at either 0.06% w/v, 0.04% w/v, 0.03% w/v or 0.015% w/v.
Corsodyl® Daily Defence mouthwash 0.06% is a commercially available product manufactured by GlaxoSmithKline which contains 0.06% w/v chlorhexidine digluconate.
The time to zero values for each of the FIGS. 4 to 6 are shown below in Table 4.

Structure (SMILES): Cc1nc2ccc(Oc3ccccc3)cc2c2c1CCN2CCc1ccccc1 [HT61, 4-methyl-8-phenoxy-1-(2-phenylethyl)-2,3-dihydro-1H-pyrrolo[3,2-c]quinoline]
- antimicrobial activity against log phase S. aureus: does not have significant antimicrobial activity
